In paper PMC2762729 (Biochemistry, 2009):
Entries after “also recorded” stand apart in the source; their conditions may differ. Like-named read-outs stand apart in the source and are kept apart here.

Key:
[1] = test system: saporin-L1; assay type: biochemical, Saponaria officinalis
[2] = target: T1, saporin-L1 (Saponaria officinalis, UniProt Q2QEH4); experiment: Competitive inhibition of A-10 RNA
[3] = test system: saporin-L1; assay type: biochemical, Saponaria officinalis; remark: listed apart in the source
[4] = target: T1, saporin-L1; assay type: biochemical; conditions: read-out: EC50, rescue of translation; n = 3
[5] = target: T1, saporin-L1; experiment: Competitive inhibition of A-10 RNA; remark: listed apart in the source
[6] = test system: 35-mer synthetic SRL mimic with GAGA tetraloop; conditions: cited from earlier work
[7] = test system: saporin-L1; conditions: pH 7.8; cited from earlier work

T1 sequence (Q2QEH4 22-280 limits assumed): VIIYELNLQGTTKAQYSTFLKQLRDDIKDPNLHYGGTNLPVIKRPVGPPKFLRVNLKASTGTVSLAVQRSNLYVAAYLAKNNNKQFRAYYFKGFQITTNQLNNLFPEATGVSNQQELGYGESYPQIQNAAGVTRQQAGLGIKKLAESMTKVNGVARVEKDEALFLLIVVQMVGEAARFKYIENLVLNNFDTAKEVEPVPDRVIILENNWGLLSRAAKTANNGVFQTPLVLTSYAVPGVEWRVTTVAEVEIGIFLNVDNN

## 5′-CGCGAGAGCG-3′ [A-10 RNA]
[1]
  Km, fold lower with saporin-L1 than with saporin-S6: 4 fold
  Km, fold tighter than poly(A) RNA: 4.5 fold
  kcat/Km, fold increased catalytic efficiency over poly(A) RNA: 45 fold
  kcat/Km, fold more efficient with saporin-L1 than with saporin-S6: 4,800 fold
[1]; pH 7.7
  Km: 95 ± 7 µM
  kcat: 7.33 ± 0.267 s⁻¹

## Nc1ncnc2c(CN3C[C@H](CO)[C@@H](O)C3)c[nH]c12 [9-DA, 9-deazaadenine-9-methylene-N-hydroxypyrrolidine (DADMeA)]
[2]
  Ki: > 500000 nM

## Nc1ncnc2c(CN3C[C@H](CO)[C@@H](O)C3)c[nH]c12 [9-DA, 9-deazaadenine-9-methylene-N-hydroxypyrrolidine]
[3]
  inhibition of saporin-L1 (in words): not an inhibitor; also recorded: poor inhibitor
[3]; read-out: Ki (no slow onset observed)
  Ki: > 500000 nM

## CO[C@@H]1[C@H](OP(=O)(O)OCCCO)[C@@H](COP(=O)(O)O[C@H]2CN(Cc3c[nH]c4c(N)ncnc34)C[C@@H]2COP(=O)(O)OCCCO)O[C@H]1n1cnc2c(=O)[nH]c(N)nc21 [s3(9-DA)Gs3 2′-OMe]
[4]
  EC50: 36 nM
[5]
  Ki: 6.4 ± 1.7 nM

## gelonin
[6]
  activity (in words): no detectable activity

## poly(A)
[7]
  Km: 639 ± 32 µM
  kcat: 1.02 ± 0.017 s⁻¹

## trichosanthin
[6]
  activity (in words): no detectable activity
